# Test results published in patent US9676714B2, “Sulfonylindole derivatives and method for preparing the same” (Daewoong Pharmaceutical Co., Ltd., priority 2013, dated 2017).
# Structures can show the parent of a compound that is named as a salt.
# Target: T1, proton pump (H+/K+-ATPase) (Sus scrofa, UniProt P19156)
# T1 construct: Gastric vesicles were prepared from hog stomach via centrifugal separation; from tissue; host or cells: hog stomach (gastric vesicles, method of Rabon et al. 1988)
# Assay: Measurement of inhibitory effects on proton pump (H+/K+-ATPase) activities
# Type: biochemical
# Conditions: hog gastric vesicles, K+-specific H+/K+-ATPase activity, Tris-HCl buffer pH 7.4, 37° C. for 40 minutes, malachite green Pi readout
# How it was run: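 Hog gastric vesicles in 60 mmol/l Tris-HCl pH 7.4 with 0.5% DMSO were treated with compounds at room temperature; reaction was started with 10 μl of 10 mmol/l ATP stock. Released Pi was read at 570 nm, K+-specific activity taken as the ±K+ difference. IC50 from 4-parameter logistic fit.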
# T1 sequence (P19156 whole entry): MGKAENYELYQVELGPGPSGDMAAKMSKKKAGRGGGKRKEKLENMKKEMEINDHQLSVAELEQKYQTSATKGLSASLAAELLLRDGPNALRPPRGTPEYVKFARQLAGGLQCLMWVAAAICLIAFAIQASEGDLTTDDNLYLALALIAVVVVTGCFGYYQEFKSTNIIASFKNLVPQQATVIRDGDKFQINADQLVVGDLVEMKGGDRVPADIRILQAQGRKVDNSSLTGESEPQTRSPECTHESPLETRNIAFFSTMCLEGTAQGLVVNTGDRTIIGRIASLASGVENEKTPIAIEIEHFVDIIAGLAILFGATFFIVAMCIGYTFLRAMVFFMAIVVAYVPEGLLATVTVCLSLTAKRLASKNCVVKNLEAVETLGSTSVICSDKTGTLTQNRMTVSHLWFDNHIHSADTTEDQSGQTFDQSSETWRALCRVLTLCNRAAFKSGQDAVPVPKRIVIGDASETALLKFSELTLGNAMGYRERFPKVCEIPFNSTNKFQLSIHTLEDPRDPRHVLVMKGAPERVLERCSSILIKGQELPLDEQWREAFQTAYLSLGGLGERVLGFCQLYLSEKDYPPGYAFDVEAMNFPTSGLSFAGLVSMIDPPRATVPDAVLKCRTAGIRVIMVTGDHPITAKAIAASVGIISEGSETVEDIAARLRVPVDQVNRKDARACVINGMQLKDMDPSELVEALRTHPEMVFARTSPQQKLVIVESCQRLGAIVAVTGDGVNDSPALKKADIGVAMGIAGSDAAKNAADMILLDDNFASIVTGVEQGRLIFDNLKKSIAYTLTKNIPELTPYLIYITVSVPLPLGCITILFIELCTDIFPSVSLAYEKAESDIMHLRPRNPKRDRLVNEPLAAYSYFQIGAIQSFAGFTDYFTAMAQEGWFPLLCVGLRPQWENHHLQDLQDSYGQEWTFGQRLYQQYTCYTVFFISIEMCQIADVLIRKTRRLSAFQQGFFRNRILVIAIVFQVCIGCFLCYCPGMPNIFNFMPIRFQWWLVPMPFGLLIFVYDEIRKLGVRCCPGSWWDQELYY
# T1 sequence (P18434 whole entry partner): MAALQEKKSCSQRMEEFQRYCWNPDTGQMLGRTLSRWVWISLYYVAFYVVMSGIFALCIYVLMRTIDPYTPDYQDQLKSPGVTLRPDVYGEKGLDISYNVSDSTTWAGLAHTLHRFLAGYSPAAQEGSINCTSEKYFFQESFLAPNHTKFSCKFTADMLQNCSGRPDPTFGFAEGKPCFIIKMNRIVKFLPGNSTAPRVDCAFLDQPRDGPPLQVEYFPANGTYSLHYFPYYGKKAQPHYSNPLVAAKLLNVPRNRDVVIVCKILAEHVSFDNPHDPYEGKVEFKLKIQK
row,SMILES,IC50 [nM]
1,"CNCc1cn(S(=O)(=O)c2cccnc2)c2cc(Nc3ccc(O)cc3C)ccc12 [Example 47, 3-methyl-4-((3-((methylamino)methyl)-1-(pyridin-3-ylsulfonyl)-1H-indol-6-yl)amino)phenol hydrochloride]",840
2,"CNCc1cn(S(=O)(=O)c2cccc(OC)c2)c2cc(Nc3ccc(Cl)cc3F)ccc12 [Example 164, N-(4-chloro-2-fluorophenyl)-1-((3-methoxyphenyl)sulfonyl)-3-((methylamino)methyl)-1H-indol-6-amine hydrochloride]",7060
3,"CNCc1cn(S(=O)(=O)c2cccc(C(F)(F)F)c2)c2cc(Nc3ccc(C)nc3Cl)ccc12 [Example 192, N-(2-chloro-6-methylpyridin-3-yl)-3-((methylamino)methyl)-1-((3-(trifluoromethyl)phenyl)sulfonyl)-1H-indol-6-amine hydrochloride]",60
4,"CNCc1cn(S(=O)(=O)c2cccnc2)c2cc(Nc3ccc(F)cc3F)ccc12 [Example 24, N-(2,4-difluorophenyl)-3-((methylamino)methyl)-1-(pyridin-3-ylsulfonyl)-1H-indol-6-amine hydrochloride]",560
5,"CNCc1cn(S(=O)(=O)c2cccnc2)c2cc(Nc3cc(OC)cc(OC)c3)ccc12 [Example 63, N-(3,5-dimethoxyphenyl)-3-((methylamino)methyl)-1-(pyridin-3-ylsulfonyl)-1H-indol-6-amine hydrochloride]",1310
6,"CNCc1cn(S(=O)(=O)c2cccc(C(F)(F)F)c2)c2cc(Cc3ccc(C)c(F)c3F)ccc12 [Example 288, 1-(6-(2,3-difluoro-4-methylbenzyl)-1-((3-(trifluoromethyl)phenyl)sulfonyl)-1H-indol-3-yl)-N-methylmethanamine]",1450
7,"CNCc1cn(S(=O)(=O)c2cccc(F)c2)c2cc(Cc3ccc(C)c(F)c3F)ccc12 [Example 287, 1-(6-(2,3-difluoro-4-methylbenzyl)-1-((3-fluorophenyl)sulfonyl)-1H-indol-3-yl)-N-methylmethanamine]",1670
8,"CNCc1cn(S(=O)(=O)c2cccc(OC(F)F)c2)c2cc(Nc3ccc(Cl)cc3F)ccc12 [Example 176, N-(4-chloro-2-fluorophenyl)-1-((3-(difluoromethoxy)phenyl)sulfonyl)-3-((methylamino)methyl)-1H-indol-6-amine hydrochloride]",370
9,"CCc1cc(Br)ccc1Nc1ccc2c(CNC)cn(S(=O)(=O)c3cccnc3)c2c1 [Example 43, N-(4-bromo-2-ethylphenyl)-3-((methylamino)methyl)-1-(pyridin-3-ylsulfonyl)-1H-indol-6-amine hydrochloride]",3020
10,"CNCc1cn(S(=O)(=O)c2cccnc2)c2cc(Nc3ccc(C#N)cc3F)ccc12 [Example 38, 3-fluoro-4-((3-((methylamino)methyl)-1-(pyridin-3-ylsulfonyl)-1H-indol-6-yl)amino)benzonitrile hydrochloride]",2190
11,"CNCc1cn(S(=O)(=O)c2cccnc2)c2cc(Nc3ccc(OC)cc3)ccc12 [Example 12, N-(4-methoxyphenyl)-3-((methylamino)methyl)-1-(pyridin-3-ylsulfonyl)-1H-indol-6-amine hydrochloride]",420
12,"CNCc1cn(S(=O)(=O)c2cccc(Cl)c2)c2cc(Nc3ccc(OC(F)(F)F)cc3F)ccc12 [Example 155, 1-((3-chlorophenyl)sulfonyl)-N-(2-fluoro-4-(trifluoromethoxy)phenyl)-3-((methylamino)methyl)-1H-indol-6-amine hydrochloride]",440

# More lines, in order of falling IC50, values ahead:
row,IC50 [nM],SMILES
1,20000,"COc1ccc(Nc2ccc3c(C(=O)N(C)C)cn(S(=O)(=O)c4cccnc4)c3c2)c(F)c1 [Example 324, 6-((2-fluoro-4-methoxyphenyl)amino)-N,N-dimethyl-1-(pyridin-3-ylsulfonyl)-1H-indol-3-carboxamide]"
2,20000,"CNC(=O)c1cn(S(=O)(=O)c2cccc(C(F)(F)F)c2)c2cc(Nc3ccc(OC)nc3Cl)ccc12 [Example 320, 6-((2-chloro-6-methoxypyridin-3-yl)amino)-N-methyl-1-((3-(trifluoromethyl)phenyl)sulfonyl)-1H-indol-3-carboxamide]"
3,8440,"CNCc1cn(S(=O)(=O)c2cccc(OC(F)F)c2)c2cc(-c3ccnc(F)c3)ccc12 [Example 262, 1-(1-((3-(difluoromethoxy)phenyl)sulfonyl)-6-(2-fluoropyridin-4-yl)-1H-indol-3-yl)-N-methylmethanamine hydrochloride]"
4,2260,"CNCc1cn(S(=O)(=O)c2cccnc2)c2cc(Nc3cc(F)c(C(F)(F)F)cc3F)ccc12 [Example 78, N-(2,5-difluoro-4-(trifluoromethyl)phenyl)-3-((methylamino)methyl)-1-(pyridin-3-ylsulfonyl)-1H-indol-6-amine hydrochloride]"
5,1730,"CNCc1cn(S(=O)(=O)c2cccnc2)c2cc(Nc3c(F)c(F)c(C(F)(F)F)c(F)c3F)ccc12 [Example 96, 3-((methylamino)methyl)-1-(pyridin-3-ylsulfonyl)-N-(2,3,5,6-tetrafluoro-4-(trifluoromethyl)phenyl)-1H-indol-6-amine hydrochloride]"
6,1340,"COC(=O)c1cn(S(=O)(=O)c2cccnc2)c2cc(-c3ccc(OC)cc3)ccc12 [Example 335, methyl 6-(4-methoxyphenyl)-1-(pyridin-3-ylsulfonyl)-1H-indol-3-carboxylate]"
7,1300,"CNCc1cn(S(=O)(=O)c2cccnc2)c2cc(Nc3ccc(C)nc3C(F)(F)F)ccc12 [Example 115, N-(6-methyl-2-(trifluoromethyl)pyridin-3-yl)-3-((methylamino)methyl)-1-(pyridin-3-ylsulfonyl)-1H-indol-6-amine hydrochloride]"
8,1010,"CNCc1cn(S(=O)(=O)c2cccnc2)c2cc(Cc3ccc(C)nc3Cl)ccc12 [Example 284, 1-(6-((2-chloro-6-methylpyridin-3-yl)methyl)-1-(pyridin-3-ylsulfonyl)-1H-indol-3-yl)-N-methylmethanamine hydrochloride]"
9,860,"CNCc1cn(S(=O)(=O)c2cccnc2)c2cc(Cc3ccc(OC(F)(F)F)cc3Cl)ccc12 [Example 280, 1-(6-(2-chloro-4-(trifluoromethoxy)benzyl)-1-(pyridin-3-ylsulfonyl)-1H-indol-3-yl)-N-methylmethanamine hydrochloride]"
10,780,"CNCc1cn(S(=O)(=O)c2cccnc2)c2cc(Nc3ccnc(OC)c3Br)ccc12 [Example 131, N-(3-bromo-2-methoxypyridin-4-yl)-3-((methylamino)methyl)-1-(pyridin-3-ylsulfonyl)-1H-indol-6-amine hydrochloride]"
11,470,"CNCc1cn(S(=O)(=O)c2cccc(OC)c2)c2cc(Cc3ccc(C)cc3Cl)ccc12 [Example 303, 1-(6-(2-chloro-4-methylbenzyl)-1-((3-methoxyphenyl)sulfonyl)-1H-indol-3-yl)-N-methylmethanamine]"
12,60,"CNCc1cn(S(=O)(=O)c2cccc(F)c2)c2cc(Nc3ccc(C)cc3Cl)ccc12 [Example 137, N-(2-chloro-4-methylphenyl)-1-((3-fluorophenyl)sulfonyl)-3-((methylamino)methyl)-1H-indol-6-amine hydrochloride]"
